Assay results: US20260035360A1, “INHIBITORS OF MYC AND USES THEREOF” (Northwestern University, priority 2022, published 2026)

Legend:
Format in all cases: cell-based
[1] = system: PC3 cells; assay: PC3 cell viability, CellTitreGlo Assay, 72 hrs; conditions: Homo sapiens, PC-3
Procedure: (§1) Table 2. Biological data of selected compounds. For IC50 determination. PC3 and PC12 cells were treated with increasing concentrations of the indicated compounds for 72 hrs and cell viability assessed using CellTitreGlo Assay (Promega). For MYC and ATF4 protein level determination. PC3 cells were treated with the indicated compounds for 24 hr sand cell lysates processed for western blot with MYC and ATF4 antibodies using Actin as a control. Quantification analyses were performed by Biorad ChemiDoc Imager and Bio-Rad Image Lab software.

[2] = system: PC12 cells; assay: PC12 cell viability, CellTitreGlo Assay, 72 hrs; conditions: Rattus norvegicus, PC-12
Procedure: as §1

[3] = target: T1, MYC (Homo sapiens, UniProt P01106); assay: MYC protein level in PC3 cells by western blot, 24 hr; conditions: PC-3, 24 h, PC3, 24 h, Actin control, read-out: Relative MYC protein at 10 μM (%, PC3 24 h)
T1 construct: endogenous in cells; host or cells: PC3 cells
Procedure: as §1

[4] = system: ATF4; assay: ATF4 protein level in PC3 cells by western blot, 24 hr; conditions: Homo sapiens, PC-3, PC3, 24 h, Actin control, read-out: Relative ATF4 protein at 10 μM (fold change, PC3 24 h)
Procedure: as §1

T1 sequence (P01106 whole entry): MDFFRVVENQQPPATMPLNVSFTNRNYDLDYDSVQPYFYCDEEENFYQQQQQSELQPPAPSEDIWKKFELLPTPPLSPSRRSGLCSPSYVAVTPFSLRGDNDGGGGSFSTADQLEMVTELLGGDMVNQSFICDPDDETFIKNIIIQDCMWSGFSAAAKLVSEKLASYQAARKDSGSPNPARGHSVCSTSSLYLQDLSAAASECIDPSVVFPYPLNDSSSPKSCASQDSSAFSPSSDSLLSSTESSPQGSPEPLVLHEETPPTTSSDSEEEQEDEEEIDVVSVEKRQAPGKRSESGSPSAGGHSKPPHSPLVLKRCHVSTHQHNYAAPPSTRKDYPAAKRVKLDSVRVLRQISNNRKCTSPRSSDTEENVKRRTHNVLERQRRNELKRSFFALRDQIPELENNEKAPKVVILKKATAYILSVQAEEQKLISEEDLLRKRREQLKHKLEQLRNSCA

Row | SMILES | IC50 [1] [µM] | IC50 [2] [µM] | remaining activity at 10 µM [3] [%] | fold induction at 10 µM [4]
1 | Cn1nc(C(F)(F)F)cc1-c1ccc(N(CC23CC4CC(CC(C4)C2)C3)C(=O)c2ccc(Cl)c(C(F)(F)F)c2)cc1O [NUCC-0226225] | 2.1 | 14.5 | 28.4 | 15.2
2 | CC(=O)N[C@@H](C(=O)N1C[C@@H](O)C[C@@H]1C(=O)NCc1ccc(-c2scnc2C)cc1OCCOCCNC(=O)CCOCCCN(C(=O)c1ccc(Cl)c(C(F)(F)F)c1)c1ccc(-c2cc(C(F)(F)F)nn2C)c(O)c1)C(C)(C)C [NUCC-0226290] | 5.1 |  | 27.4 | 2.9
3 | Cc1ncsc1-c1ccc(CNC(=O)[C@@H]2C[C@H](O)CN2C(=O)[C@H](NC(=O)COCCNC(=O)CCOCCCN(C(=O)c2ccc(Cl)c(C(F)(F)F)c2)c2ccc(-c3cc(C(F)(F)F)nn3C)c(O)c2)C(C)(C)C)cc1 [NUCC-0226291] | 4 | 14.6 | 54.6 | 1.8
4 | CN1C(=O)CCC(N2C(=O)c3cccc(NCCOCCOCCNC(=O)CCOCCCN(C(=O)c4ccc(Cl)c(C(F)(F)F)c4)c4ccc(-c5cc(C(F)(F)F)nn5C)c(O)c4)c3C2=O)C1=O (stereo not drawn) [NUCC-0226292] | 10.1 |  | 65.1 | 1.1
5 | Cn1nc(C(F)(F)F)cc1-c1ccc(N(CCCOCCC(=O)NCCOCCOCCNc2ccc3c(c2)C(=O)N(C2CCC(=O)NC2=O)C3=O)C(=O)c2ccc(Cl)c(C(F)(F)F)c2)cc1O (stereo not drawn) [NUCC-0226293] | 4.7 |  | 18.4 | 3.6
6 | C[C@@H](C(=O)N[C@H](C(=O)N1C[C@@H](NC(=O)COCCOCCNC(=O)CCOCCCN(C(=O)c2ccc(Cl)c(C(F)(F)F)c2)c2ccc(-c3cc(C(F)(F)F)nn3C)c(O)c2)C[C@H]1C(=O)N[C@@H]1CCCc2ccccc21)C1CCCCC1)N(C)C(=O)OC(C)(C)C [NUCC-0226299] | 3.8 | 11.3 | 42.1 | 5.4
7 | Cn1nc(C(F)(F)F)cc1-c1ccc(OCc2ccc(OCCOCCNc3cccc4c3C(=O)N(C3CCC(=O)NC3=O)C4=O)cc2)c(-c2ccc(Cl)c(C(F)(F)F)c2)c1O (stereo not drawn) [NUCC-0226301] | 1.1 | 3.8 | 48.5 | 3.2
8 | Cc1ncsc1-c1ccc(CNC(=O)[C@@H]2C[C@@H](O)CN2C(=O)[C@@H](NCCOCCNC(=O)CCOCCCOc2ccc(-c3cc(C(F)(F)F)nn3C)c(O)c2-c2ccc(Cl)c(C(F)(F)F)c2)C(C)(C)C)cc1 [NUCC-0226303] | 10.9 |  | 24 | 1.6
9 | CC(C)Cc1ccc(COc2ccc(-c3cc(C(F)(F)F)nn3C)c(O)c2-c2ccc(Cl)c(C(F)(F)F)c2)cc1 [NUCC-0226305] | 8.4 |  | 52.4 | 2.9
10 | C[C@@H](Oc1ccc(-c2cc(C(F)(F)F)nn2C)c(O)c1-c1ccc(Cl)c(C(F)(F)F)c1)c1ccccc1 [NUCC-0226433] | 4 |  | 35 | 10.6
11 | C[C@H](Oc1ccc(-c2cc(C(F)(F)F)nn2C)c(O)c1-c1ccc(Cl)c(C(F)(F)F)c1)c1ccccc1 [NUCC-0226434] | 4.3 |  | 20 | 9.4
12 | Cc1ccc([C@H](C)Oc2ccc(-c3cc(C(F)(F)F)nn3C)c(O)c2-c2ccc(Cl)c(C(F)(F)F)c2)cc1 [NUCC-0226435] | 5.4 |  | 47.4 | 4.7
13 | Cc1ccc([C@@H](C)Oc2ccc(-c3cc(C(F)(F)F)nn3C)c(O)c2-c2ccc(Cl)c(C(F)(F)F)c2)cc1 [NUCC-0226436] | 3.4 |  | 30.3 | 11.8
14 | CC(C)Cc1ccc([C@@H](C)Oc2ccc(-c3cc(C(F)(F)F)nn3C)c(O)c2-c2ccc(Cl)c(C(F)(F)F)c2)cc1 [NUCC-0226437] | 5.4 |  | 50.7 | 9
15 | CC(C)Cc1ccc(C(C)Oc2ccc(-c3cc(C(F)(F)F)cn3C)c(O)c2-c2ccc(Cl)c(C(F)(F)F)c2)cc1 (stereo not drawn) [NUCC-0226438] | 5.3 |  | 52.3 | 3.7
16 | Cc1ccc(C2(Oc3ccc(-c4cc(C(F)(F)F)nn4C)c(O)c3-c3ccc(Cl)c(C(F)(F)F)c3)CC2)cc1 [NUCC-0226495] | 3.8 | 597 | 15.6 | 11.5

Row | SMILES | IC50 [1] [µM] | IC50 [2] [µM] | remaining activity at 10 µM [3] [%] | fold induction at 10 µM [4]
17 | Cn1nc(C(F)(F)F)cc1-c1ccc(OCc2ccc(Cl)cc2)c(-c2ccc(Cl)c(Cl)c2)c1O [NUCC-0226496] | 5.3 |  | 25.4 | 10.3
18 | Cn1nc(C(F)(F)F)cc1-c1ccc(OCc2ccc(Cl)cc2)c(-c2ccc(Cl)cc2F)c1O [NUCC-0226497] | 24.8 |  | 93 | 5.9
19 | Cn1nc(C(F)(F)F)cc1-c1ccc(OCc2ccc(Cl)cc2)c(-c2cccc(F)c2)c1O [NUCC-0226498] | 40.9 |  | 67.8 | 4.8
20 | Cn1nc(C(F)(F)F)cc1-c1ccc(OCc2ccc(Cl)cc2)c(-c2ccc(Cl)c(C#N)c2)c1O [NUCC-0226499] | 2.4 | 13.5 | 37.3 | 17.1
21 | COc1c(Cl)cc(-c2cc(C(F)(F)F)nn2C)c(O)c1-c1ccc(Cl)c(C(F)(F)F)c1 [NUCC-0226500] | 1.6 | 8.6 | 72.4 | 7.7
22 | COc1ccc(-c2c(Cl)c(C(F)(F)F)nn2C)c(O)c1-c1ccc(Cl)c(C(F)(F)F)c1 [NUCC-0226501] | 4.6 |  | 59.4 | 9.3
23 | Cn1nc(C(F)(F)F)cc1-c1ccc(NC(c2ccccc2)c2ccccc2)c(-c2ccc(Cl)c(C(F)(F)F)c2)c1O [NUCC-0226502] | 14.1 |  | 122 | 1.4
24 | Cn1nc(C(F)(F)F)cc1-c1ccc(OCc2ccc(Cl)cc2)c(-c2ccc(F)c(F)c2)c1O [NUCC-0226504] | 7.3 |  | 32.5 | 5.2
25 | Cn1nc(C(F)(F)F)cc1-c1ccc(N)c(-c2ccc(Cl)c(C(F)(F)F)c2)c1O [NUCC-0226520] | 12.7 |  | 67.5 | 1.1
26 | CNc1ccc(-c2cc(C(F)(F)F)nn2C)c(O)c1-c1ccc(Cl)c(C(F)(F)F)c1 [NUCC-0226527] | 6.2 |  | 50.8 | 1.2
27 | Cn1nc(C(F)(F)F)cc1-c1cc(Cl)c(N)c(-c2ccc(Cl)c(C(F)(F)F)c2)c1O [NUCC-0226528] | 4.5 | 30.5 | 19.8 | 2
28 | CNc1c(Cl)cc(-c2cc(C(F)(F)F)nn2C)c(O)c1-c1ccc(Cl)c(C(F)(F)F)c1 [NUCC-0226529] | 3.1 | 19.4 | 41.3 | 2.4
29 | Cn1nc(C(F)(F)F)cc1-c1ccc(Cc2ccc(Cl)cc2)c(-c2ccc(Cl)c(C(F)(F)F)c2)c1O [NUCC-0226566] | 3.88 |  | 43.7 | 10.5
30 | Cn1nc(C(F)(F)F)cc1-c1ccc(CCc2ccc(Cl)cc2)c(-c2ccc(Cl)c(C(F)(F)F)c2)c1O [NUCC-0226574] | 3.59 |  | 43.7 | 12
31 | CC(C)n1nc(C(F)(F)F)cc1-c1ccc(OCc2ccc(Cl)cc2)c(-c2ccc(Cl)c(C(F)(F)F)c2)c1O [NUCC-0226657] | 7.51 |  | 56.6 | 7.7
32 | Cn1nc(C(N)=O)cc1-c1cc(Cl)c(COc2ccc(Cl)cc2)c(-c2ccc(Cl)c(C(F)(F)F)c2)c1O [NUCC-0227066] | 8.53 |  | 84.2 | 3.9
